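Grown in 96-well plates, cells were treated for 48 hours with each compound at five concentrations. Insufficient inhibition: endpoint recorded as highest concentration tested. GI50 is the concentration that inhibits growth by half.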 Calls of active or inactive are those of the source. Cut-off read from the data, not from the text of the source: active = GI50 up to about 1.1 µM and inactive = higher.

Among the test systems are A498; A549; CAKI-1; CCRF-CEM; COLO 205; EKVX; IGROV-1; M14; MCF7; MDA-MB-231; MOLT-4; NCI-H460; NCI/ADR-RES; PC-3; SK-OV-3; SW-620; T47D; UACC-257.
What all share (experiment): NCI-60 cell line screen, 48 h

For the compound `C/C(=N\NC(=S)N(C)CCN(C)C(=S)N/N=C(\C)c1ccccn1)c1ccccn1`, the GI50 with A498 is 0.565 µM (active); in the assay with A549 it was 2.37 µM (inactive); in the assay with CAKI-1 it was 1.78 µM (inactive); in the assay on CCRF-CEM, 0.428 µM (active); with COLO 205, 0.247 µM (active); with EKVX, 1.73 µM (inactive). In addition, the GI50 in the assay with IGROV-1 is 0.465 µM (active); in the assay on M14 it was > 100 µM (inactive); in the assay on MCF7, 2.77 µM (inactive); with MDA-MB-231 it was 0.246 µM (active); in the assay on MOLT-4, 0.479 µM (active); in the assay on NCI-H460, 0.509 µM (active). The GI50 with NCI/ADR-RES was 0.346 µM (active); in the assay on PC-3, 0.553 µM (active); in the assay with SK-OV-3 it was 4.21 µM (inactive); in the assay with SW-620, 0.662 µM (active); in the assay with T47D it was 1.84 µM (inactive); in the assay with UACC-257 it was 0.774 µM (active).

Consider `COc1ccc2nc3c([N+](=O)[O-])ccc4c3c(c2c1)N=CN4CCCN(C)C`, for which the GI50 was 5.6 µM (inactive) in the assay with A498; 0.716 µM (active) in the assay on A549; 1.27 µM (inactive) with CAKI-1; 0.807 µM (active) in the assay on CCRF-CEM; 0.855 µM (active) in the assay with COLO 205; 1.64 µM (inactive) in the assay on EKVX. The GI50 in the assay with IGROV-1 was 0.855 µM (active); in the assay on M14, 4.73 µM (inactive); in the assay on MCF7, 0.733 µM (active); in the assay with MDA-MB-231, 1.37 µM (inactive); with MOLT-4 it was 0.23 µM (active); in the assay on NCI-H460 it was 0.773 µM (active). Moreover, the GI50 is 2.32 µM (inactive) with NCI/ADR-RES; 1.21 µM (inactive) in the assay with PC-3; 4.4 µM (inactive) in the assay with SK-OV-3; 0.44 µM (active) with SW-620; 11.5 µM (inactive) with T47D; 3.78 µM (inactive) in the assay with UACC-257.

As to `COc1ccc(Nc2nc(N)c(C(=O)c3cccs3)s2)cc1`, the GI50 in the assay with A498 was 6.68 µM (inactive); in the assay with A549, 5.7 µM (inactive); in the assay with CAKI-1 it was 5 µM (inactive); with CCRF-CEM, 3.38 µM (inactive); with COLO 205, 3.98 µM (inactive); with EKVX, 16.9 µM (inactive). Also, the GI50 was 4.43 µM (inactive) with IGROV-1; 13.4 µM (inactive) in the assay with M14; 5.21 µM (inactive) with MCF7; 26.2 µM (inactive) in the assay on MDA-MB-231; 2.51 µM (inactive) with MOLT-4; 3.1 µM (inactive) in the assay with NCI-H460. Moreover, the GI50 in the assay on NCI/ADR-RES was 10.7 µM (inactive); with PC-3, 11.4 µM (inactive); with SK-OV-3, 20.6 µM (inactive); in the assay with SW-620, 5.45 µM (inactive); in the assay on T47D, 15.8 µM (inactive); with UACC-257, 9.31 µM (inactive).

Take `C=C1CC(C)(COc2ccc3ccc(=O)oc3c2)OC1=O` (centres undefined): the GI50 in the assay with A498 is 7.45 µM (inactive); in the assay with A549, 13.5 µM (inactive); in the assay with CAKI-1, 2.03 µM (inactive); with CCRF-CEM it was 0.402 µM (active); in the assay with COLO 205, 0.982 µM (active); with EKVX it was 7.53 µM (inactive). The GI50 was 2.93 µM (inactive) in the assay on IGROV-1; 1.14 µM (inactive) with M14; 1.48 µM (inactive) in the assay on MCF7; 8.28 µM (inactive) in the assay on MDA-MB-231; 1.18 µM (inactive) in the assay with MOLT-4; 6.62 µM (inactive) with NCI-H460. Moreover, the GI50 was 1.04 µM (active) in the assay with NCI/ADR-RES; 3.48 µM (inactive) in the assay on PC-3; 8.15 µM (inactive) with SK-OV-3; 0.822 µM (active) in the assay with SW-620; 3.66 µM (inactive) in the assay on T47D; 0.671 µM (active) in the assay on UACC-257.

Take `COc1cc2c(cc1OC)C1C(O)C(OC)C(Br)C3(Br)CCN(C2)C13` (centres undefined): the GI50 in the assay with A498, in the assay with A549, in the assay on CAKI-1, in the assay on CCRF-CEM, in the assay with COLO 205 and with EKVX was > 100 µM (inactive) in each case. Moreover, the GI50 is > 100 µM (inactive) in the assay with IGROV-1; > 100 µM (inactive) in the assay with M14; > 100 µM (inactive) with MCF7; > 100 µM (inactive) in the assay with MDA-MB-231; 54 µM (inactive) with MOLT-4; 56.6 µM (inactive) in the assay on NCI-H460. In addition, the GI50 was > 100 µM (inactive) in the assay on NCI/ADR-RES; > 100 µM (inactive) in the assay on PC-3; > 100 µM (inactive) with SK-OV-3; > 100 µM (inactive) in the assay on SW-620; 84.1 µM (inactive) with T47D; > 100 µM (inactive) in the assay on UACC-257.

In the case of `CC(=O)OC(C)(C)CCC(=O)[C@](C)(O)[C@H]1[C@H](O)C[C@@]2(C)[C@@H]3CC=C4C(C)=C(OC5OC(CO)C(O)C(O)C5O)C(=O)C[C@@H]4[C@]3(C)C(=O)C[C@]12C` (some centres undefined), the GI50 with A498, in the assay on A549, with CAKI-1, in the assay with CCRF-CEM, with COLO 205 and with EKVX was > 100 µM (inactive) throughout. Besides, the GI50 in the assay on IGROV-1, in the assay on M14, with MCF7, with MDA-MB-231, in the assay with MOLT-4 and in the assay with NCI-H460 was > 100 µM (inactive) each time. Also, the GI50 in the assay on NCI/ADR-RES, in the assay with PC-3, in the assay with SK-OV-3, with SW-620, in the assay on T47D and with UACC-257 was > 100 µM (inactive) each time.

In the case of `CC(=O)c1ccc(NCN2C(=O)c3ccccc3C2=O)cc1`, the GI50 in the assay with A498, with A549, in the assay on CAKI-1, in the assay on CCRF-CEM, in the assay on COLO 205 and in the assay on EKVX was > 100 µM (inactive) throughout. The GI50 with IGROV-1, in the assay with M14, in the assay with MCF7, in the assay on MDA-MB-231, in the assay with MOLT-4 and with NCI-H460 was > 100 µM (inactive) throughout. Also, the GI50 in the assay with NCI/ADR-RES, with PC-3, with SK-OV-3, in the assay with SW-620, in the assay with T47D and in the assay with UACC-257 was > 100 µM (inactive) each time.

Take `COc1cc2ccccc2c2cc([N+](=O)[O-])oc12`: the GI50 with A498 is 0.177 µM (active); with A549, 0.294 µM (active); in the assay on CAKI-1, 0.48 µM (active); in the assay with CCRF-CEM it was 0.26 µM (active); in the assay with COLO 205, 0.379 µM (active); in the assay with EKVX it was 4.19 µM (inactive). The GI50 with IGROV-1 is 1.25 µM (inactive); with M14, 0.142 µM (active); in the assay on MCF7, 0.35 µM (active); in the assay with MDA-MB-231, 0.655 µM (active); with MOLT-4 it was 0.0792 µM (active); in the assay with NCI-H460, 0.183 µM (active). The GI50 in the assay on NCI/ADR-RES is 1.43 µM (inactive); in the assay with PC-3, 3.04 µM (inactive); in the assay on SK-OV-3, 0.49 µM (active); in the assay on SW-620, 0.893 µM (active); with T47D, 5.36 µM (inactive); in the assay on UACC-257, 0.179 µM (active).

For the origin of these results see ChEMBL document CHEMBL1201862, “PubChem BioAssay data set” (2004).
